Laboratory results reported in patent US20250144187A1, “COMBINATION OF HYDROLASES AND ANTI-MICROORGANISM DRUGS AND USES THEREOF” (CENTRE FOR EYE AND VISION RESEARCH LIMITED, priority 2023, published 2025).

Legend:
MRSA [1] = test: High-throughput screening of 1953 FDA-approved compounds with human lysozyme; type: cell-based, Staphylococcus aureus; conditions: compound 25 μM + 1 mg/ml lysozyme, 24-hour
Procedure: 1) High-throughput screening. According to standard screening method [Zhong. […] Commun. 11, 523 (2020)], 1953 FDA-approved compounds from our drugs library at a fixed concentrations of 25 μM were screened against methicillin-resistant Staphylococcus aureus (MRSA) and Staphylococcus epidermis (a coagulase negative Staphylococci, MRSE), in combination with human lysozyme. Specifically, these compounds were added into bacterial suspensions (1×10^5 CFU/ml, in LB medium) in the absence or presence of 1 mg/ml lysozyme. LB medium without bacteria served as background group. Then, the real-time growth curvet of MRSA were monitored per hour and for 24 hours. Absorbance at 600 am (OD600) of bacterial culture at the time point of 24-hour was also measured. The inhibition ratio (%) was calculated as (ODcontrol−ODsample)/(ODcontrol−ODbackground)×100%. […] Herein, the relative and apparent inhibition ratios indicated the combination effect and potential toxicity of compound, respectively. Synergy effect was defined as the relative inhibition ratio of ≥90%. All assays were performed in triplicate.

MRSA [2] = test: Antibiotics accumulation analysis (LC-MS/MS); type: cell-based, Staphylococcus aureus
Procedure: 11) Antibiotics accumulation analysis. The accumulation of antibiotics in MRSA was determined by LC-MS/MS analysis according to a previous report [Liu, Y et al., Adv. Sci. 7. 1902227 (2020); Ong, V et al., Drug Metab. Dispos, 4127 (2014); Richter, M. F et al., Nature 545, 299-304 (2017)]. Briefly, 1.0 ml of overnight culture of MRSA was diluted into […] of fresh LB medium and cultured at 37° C. with shaking at 250 rpm until when bacteria OD600 was about 0.4. Then, tedizolid phosphate (0.5 μg/ml) in combination with varying lysozyme (0, 0.25, 0.5 and 1.0 mg/ml) was added. After that, all samples were further cultured at 37° C. with shaking at 250 rpm for 0.5, 1.0, 2.0 or 4 hours, respectively. Then, all bacteria were pelleted by centrifuging at 13 000 g for 20 minutes. To lyse the bacteria, each pellet was dissolved in 400 μl of lysis buffer (150 mM NaCl, 1% Triton-X100, 1× proteinase inhibitor and 50 mM HEPES-Na, pH 8.0) and then subjected to sonication lysis, followed by three freeze-thaw cycles in liquid nitrogen. The lysates were pelleted at 13 000 g for 20 minutes and the supernatants were collected. All debris were re-suspended in 400 μl of methanol and pelleted as before, followed by 400 μl of acetonitrile treatment as before. These supernatants were combined with the previously collected supernatants, Residual debris was removed by centrifuging at 13 000 g for 20 minutes. Supernatants were analyzed by an Agilent 1260 Infinity HPLC system coupled to AD SCIEX QTRAP 6500 mass spectrometers (ABSciex, CA, USA). The liquid chromatography separation was performed on water HSS T3 column (2.1×100 mm, 3 μm) with mobile phase A (20 mM ammonium formate in water) and mobile phase B (methanol). The flow rate was […]. […] The quantification determination of antibiotic uptake was performed by multiple reaction monitoring (MRM) with negative electrospray ionization using the m/z 451 transition for tedizolid phosphate [Ong, V et al., Drug Metab. […]

MRSA [3] = test: Mutation frequency and prevention concentration analysis, tedizolid phosphate/lysozyme
MRSA-infected skin wound = test: Rat skin infection model, tedizolid phosphate/lysozyme; type: in vivo, Sprague Dawley (SD) rats; conditions: combination therapy
Procedure: 19) Skin infection model. […] Except 3 rats in uninfected group, other 12 rats were infected by 5×10^11 CFUs of mid-log phase MRSA from our own collection. Briefly, all rats were firstly pec-depilated by using 10% Na2S to get an uncovered back area of 4 cm×4 cm before 24 hours for the anesthetization on rats. Then, the skin of anesthetized rat was removed until fascial region under sterile condition, followed by spraying 5.0×10^11 CFUs of mid-log phase MRSA on wound (3 cm×3 cm). Bacterial suspensions were collected by below-described method [Zhang. […] Specifically, mid-log phase MRSA was collected by centrifugation at 4500 g for 15 minutes, washed with PBS for 3 limes and re-suspended in cold PBS to get bacterial suspension with an initial density of about 4.0×10^11 CFU/ml according to pre-experiment. Next, 1.25 ml of bacterial suspension was sprayed onto wound. […] All sterile medical gauzes were 0.2 g/cm^2, and further covered by two layers of sterile gauzes and fixed by sterile tapes. Next, rats were monitored until they were fully awake, and then returned to their cages. After 24 hours infection, these sterile medical gauzes were replaced with new sterile medical gauzes soaking different drugs, i.e., normal saline, tedizolid phosphate (0.167 mg/kg) or lysozyme (0.833 mg/kg), or their combination (0.167 mg tedizolid phosphates/kg rat+0.833 mg lysosyme/kg rat), respectively. Meanwhile, rats in uninfected group were treated with new sterile medical gauzes soaking normal saline. All steps were repeated at 48-, 72-, 96-, 120- and 144-hr post-inoculation. At 168 hours post-inoculation, all rats were sacrificed to collect their wounds. These collected tissues were fixed in 10% formalin for at least 24 hours and embedded in paraffin. Next, about 4-μm sections were analyzed by using the hematoxylin and eosin (H-E) staining kit. […] Meanwhile, this homogenate was also 10-fold gradient-diluted in 96-well plate to figure out the bacterial load in infected wound according to quantitative grown colony after overnight culture. […]

SMILES	Growth inhibition ratio (mean ± SD, %) MRSA (MRSA [1]) [%]	increase in the level of intracellular tedizolid phosphate (MRSA [2]; after 4 hours, lysozyme (≤0.25 mg/ml) used in combination) [fold]	intracellular accumulation of tedizolid phosphate (MRSA [2]; combination therapy, 1 hour)	tedizolid phosphate alone needed to achieve the same intracellular accumulation (MRSA [2]; tedizolid phosphate alone, 1 hour) [µg/mL]	mutation frequencies (MRSA [3]; combination with lysozyme)	prevention concentrations of tedizolid phosphate (MRSA [3]; combination with lysozyme) [µg/mL]	mutation frequencies (MRSA [3]; without combination therapy)	prevention concentrations of tedizolid phosphate (MRSA [3]; without lysozyme) [µg/mL]	decrease in the level of IL-6 (MRSA-infected skin wound; 7 days)	decrease in the level of ROS (MRSA-infected skin wound; 7 days) [%]	reduction of bacterial load in the wound (MRSA-infected skin wound; 168 hours post-inoculation)
C=CC1=C(C(=O)O)N2C(=O)[C@@H](NC(=O)/C(=N\O)c3csc(N)n3)[C@H]2SC1 [cefdinir, Cefdinir]	85.21 ± 9.84										
Cn1nnc(-c2ccc(-c3ccc(N4C[C@H](COP(=O)(O)O)OC4=O)cc3F)cn2)n1 [tedizolid phosphate, Tedizolid Phosphate]		10	ca. 100 μg/l	≥ 4.5	2×10^−9	≤ 1	≥ 5×10^−7	> 50	more than 20%	> 70	> 10^6 fold
